Assay results published in patent US20250098679A1, “HERBICIDAL PYRIDONE DERIVATIVES” (SYNGENTA CROP PROTECTION AG, priority 2021, published 2025).

Columns and labels:
Type in all cases: in vivo
[1] = test system: Echinochloa crus-galli (ECHCG); test: Pre-emergence Test, Echinochloa crus-galli (ECHCG); conditions: evaluated after 13 days
Zea mays (ZEAMX) [2] = test: Pre-emergence Test, Zea mays (ZEAMX); conditions: evaluated after 13 days
[3] = test system: Ipomoea hederacea (IPOHE); test: Pre-emergence Test, Ipomoea hederacea (IPOHE); conditions: evaluated after 13 days
[4] = test system: Amaranthus palmeri (AMAPA); test: Pre-emergence Test, Amaranthus palmeri (AMAPA); conditions: evaluated after 13 days
[5] = test system: Amaranthus retoflexus (AMARE); test: Pre-emergence Test, Amaranthus retoflexus (AMARE); conditions: evaluated after 13 days
Setaria faberi (SETFA) = test: Post-emergence Test, Setaria faberi (SETFA); set-up: key to percentage damage caused to the plant, SETFA (five-point scale): 5=81-100%, 4=61-80%, 3=41-60%, 2=21-40%, 1=0-20% damage; conditions: 1000 g/ha, evaluated after 13 days
Method in brief: (§1)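 Tested at 1000 g/ha unless otherwise stated. Plants were held at 24/16 °C day/night with a 14 h light period. Percent damage was read at 13 days and reported in five bands.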

[6] = test system: Echinochloa crus-galli (ECHCG); test: Post-emergence Test, Echinochloa crus-galli (ECHCG); set-up: key to percentage damage caused to the plant, ECHCG (five-point scale): 5=81-100%, 4=61-80%, 3=41-60%, 2=21-40%, 1=0-20% damage; conditions: 250 g/Ha, evaluated after 13 days
Method in brief: as §1

Zea mays (ZEAMX) [7] = test: Post-emergence Test, Zea mays (ZEAMX); set-up: key to percentage damage caused to the plant, ZEAMX (five-point scale): 5=81-100%, 4=61-80%, 3=41-60%, 2=21-40%, 1=0-20% damage; conditions: evaluated after 13 days
Method in brief: as §1

[8] = test system: Ipomoea hederacea (IPOHE); test: Post-emergence Test, Ipomoea hederacea (IPOHE); set-up: key to percentage damage caused to the plant, IPOHE (five-point scale): 5=81-100%, 4=61-80%, 3=41-60%, 2=21-40%, 1=0-20% damage; conditions: evaluated after 13 days
Method in brief: as §1

[9] = test system: Amaranthus palmeri (AMAPA); test: Post-emergence Test, Amaranthus palmeri (AMAPA); set-up: key: 5=81-100%, 4=61-80%, 3=41-60%, 2=21-40%, 1=0-20% damage; conditions: evaluated after 13 days
Method in brief: as §1

[10] = test system: Amaranthus retoflexus (AMARE); test: Post-emergence Test, Amaranthus retoflexus (AMARE); set-up: key to percentage damage caused to the plant, AMARE (five-point scale): 5=81-100%, 4=61-80%, 3=41-60%, 2=21-40%, 1=0-20% damage; conditions: evaluated after 13 days
Method in brief: as §1

SMILES: CCn1c(Cn2ccc([N+](=O)[O-])n2)cc(=O)c(C(=O)O)c1-c1ccc(Cl)c(Cl)c1 [Compound 178, 2-(3,4-dichlorophenyl)-1-ethyl-6-[(3-nitropyrazol-1-yl)methyl]-4-oxo-pyridine-3-carboxylic acid]
- Pre-emergence Test ECHCG, percentage damage caused to the plant (five-point scale) ([1]; 250 g/Ha (*)): 1 (1=0-20%)
- Pre-emergence Test ECHCG, percentage damage caused to the plant (five-point scale) ([1]; 1000 g/ha): 2 (2=21-40%)
- Pre-emergence Test ZEAMX, percentage damage caused to the plant (five-point scale) (Zea mays (ZEAMX) [2]; 250 g/Ha (*)): 0
- Pre-emergence Test ZEAMX, percentage damage caused to the plant (five-point scale) (Zea mays (ZEAMX) [2]; 1000 g/ha): 0
- Pre-emergence Test IPOHE, percentage damage caused to the plant (five-point scale) ([3]; 250 g/Ha (*)): 0
- Pre-emergence Test IPOHE, percentage damage caused to the plant (five-point scale) ([3]; 1000 g/ha): 0
- Pre-emergence Test AMAPA, percentage damage caused to the plant (five-point scale) ([4]; 250 g/Ha (*)): 0
- Pre-emergence Test AMAPA, percentage damage caused to the plant (five-point scale) ([4]; 1000 g/ha): 0
- Pre-emergence Test AMARE, percentage damage caused to the plant (five-point scale) ([5]; 250 g/Ha (*)): 0
- Pre-emergence Test AMARE, percentage damage caused to the plant (five-point scale) ([5]; 1000 g/ha): 0
- percentage damage caused to the plant, SETFA (five-point scale) (Setaria faberi (SETFA)): 2 (2=21-40%)
- percentage damage caused to the plant, ECHCG (five-point scale) [6]: 1 (1=0-20%)
- percentage damage caused to the plant, ZEAMX (five-point scale) (Zea mays (ZEAMX) [7]; 250 g/Ha): 0
- percentage damage caused to the plant, ZEAMX (five-point scale) (Zea mays (ZEAMX) [7]; 1000 g/ha): 0
- percentage damage caused to the plant, IPOHE (five-point scale) ([8]; 250 g/Ha): 1 (1=0-20%)
- percentage damage caused to the plant, IPOHE (five-point scale) ([8]; 1000 g/ha): 0
- percentage damage caused to the plant, AMAPA (five-point scale) ([9]; 250 g/Ha): 1 (1=0-20%)
- percentage damage caused to the plant, AMAPA (five-point scale) ([9]; 1000 g/ha): 1 (1=0-20%)
- percentage damage caused to the plant, AMARE (five-point scale) ([10]; 250 g/Ha): 0
- percentage damage caused to the plant, AMARE (five-point scale) ([10]; 1000 g/ha): 1 (1=0-20%)

SMILES: CCn1c(Cn2ccc(C3CC3)n2)cc(=O)c(C(=O)O)c1-c1ccc(Cl)c(Cl)c1 [Compound 179, 6-[(3-cyclopropylpyrazol-1-yl)methyl]-2-(3,4-dichlorophenyl)-1-ethyl-4-oxo-pyridine-3-carboxylic acid]
- Pre-emergence Test ECHCG, percentage damage caused to the plant (five-point scale) ([1]; 250 g/Ha (*)): 1 (1=0-20%)
- Pre-emergence Test ECHCG, percentage damage caused to the plant (five-point scale) ([1]; 1000 g/ha): 5 (5=81-100%)
- Pre-emergence Test ZEAMX, percentage damage caused to the plant (five-point scale) (Zea mays (ZEAMX) [2]; 250 g/Ha (*)): 0
- Pre-emergence Test ZEAMX, percentage damage caused to the plant (five-point scale) (Zea mays (ZEAMX) [2]; 1000 g/ha): 5 (5=81-100%)
- Pre-emergence Test IPOHE, percentage damage caused to the plant (five-point scale) ([3]; 250 g/Ha (*)): 0
- Pre-emergence Test IPOHE, percentage damage caused to the plant (five-point scale) ([3]; 1000 g/ha): 4 (4=61-80%)
- Pre-emergence Test AMAPA, percentage damage caused to the plant (five-point scale) ([4]; 250 g/Ha (*)): 0
- Pre-emergence Test AMAPA, percentage damage caused to the plant (five-point scale) ([4]; 1000 g/ha): 2 (2=21-40%)
- Pre-emergence Test AMARE, percentage damage caused to the plant (five-point scale) ([5]; 1000 g/ha): 4 (4=61-80%)
- percentage damage caused to the plant, SETFA (five-point scale) (Setaria faberi (SETFA)): 4 (4=61-80%)
- percentage damage caused to the plant, ECHCG (five-point scale) [6]: 3 (3=41-60%)
- percentage damage caused to the plant, ZEAMX (five-point scale) (Zea mays (ZEAMX) [7]; 250 g/Ha): 3 (3=41-60%)
- percentage damage caused to the plant, ZEAMX (five-point scale) (Zea mays (ZEAMX) [7]; 1000 g/ha): 4 (4=61-80%)
- percentage damage caused to the plant, IPOHE (five-point scale) ([8]; 250 g/Ha): 4 (4=61-80%)
- percentage damage caused to the plant, IPOHE (five-point scale) ([8]; 1000 g/ha): 4 (4=61-80%)
- percentage damage caused to the plant, AMAPA (five-point scale) ([9]; 250 g/Ha): 1 (1=0-20%)
- percentage damage caused to the plant, AMAPA (five-point scale) ([9]; 1000 g/ha): 3 (3=41-60%)
- percentage damage caused to the plant, AMARE (five-point scale) ([10]; 250 g/Ha): 0
- percentage damage caused to the plant, AMARE (five-point scale) ([10]; 1000 g/ha): 3 (3=41-60%)

SMILES: CCn1c(Cn2ccc(C(C)=O)n2)cc(=O)c(C(=O)O)c1-c1ccc(Cl)c(Cl)c1 [Compound 180, 6-[(3-acetylpyrazol-1-yl)methyl]-2-(3,4-dichlorophenyl)-1-ethyl-4-oxo-pyridine-3-carboxylic acid]
- Pre-emergence Test ECHCG, percentage damage caused to the plant (five-point scale) ([1]; 1000 g/ha): 1 (1=0-20%)
- Pre-emergence Test ZEAMX, percentage damage caused to the plant (five-point scale) (Zea mays (ZEAMX) [2]; 1000 g/ha): 0
- Pre-emergence Test IPOHE, percentage damage caused to the plant (five-point scale) ([3]; 1000 g/ha): 0
- Pre-emergence Test AMAPA, percentage damage caused to the plant (five-point scale) ([4]; 1000 g/ha): 1 (1=0-20%)
- Pre-emergence Test AMARE, percentage damage caused to the plant (five-point scale) ([5]; 1000 g/ha): 2 (2=21-40%)
- percentage damage caused to the plant, SETFA (five-point scale) (Setaria faberi (SETFA)): 1 (1=0-20%)
- percentage damage caused to the plant, ECHCG (five-point scale) [6]: 1 (1=0-20%)
- percentage damage caused to the plant, ZEAMX (five-point scale) (Zea mays (ZEAMX) [7]; 250 g/Ha): 0
- percentage damage caused to the plant, ZEAMX (five-point scale) (Zea mays (ZEAMX) [7]; 1000 g/ha): 1 (1=0-20%)
- percentage damage caused to the plant, IPOHE (five-point scale) ([8]; 250 g/Ha): 0
- percentage damage caused to the plant, IPOHE (five-point scale) ([8]; 1000 g/ha): 1 (1=0-20%)
- percentage damage caused to the plant, AMAPA (five-point scale) ([9]; 250 g/Ha): 0
- percentage damage caused to the plant, AMAPA (five-point scale) ([9]; 1000 g/ha): 0
- percentage damage caused to the plant, AMARE (five-point scale) ([10]; 250 g/Ha): 0
- percentage damage caused to the plant, AMARE (five-point scale) ([10]; 1000 g/ha): 1 (1=0-20%)
